Our source for the IC50 values is patent publication US9969752B2, “Inhibitors of HIF prolyl hydroxylase” (MERCK SHARP & DOHME CORP., priority 2014, dated 2018).

Structures are written as SMILES.

In one experiment the target is T1, Human HIF-PHD2 (Homo sapiens, UniProt Q9GZT9).
T1 construct: FLAG-tagged full length PHD2 expressed in and purified from baculovirus-infected Sf9 cells; FLAG; made in house; host or cells: baculovirus-infected Sf9 cells
T1 sequence (Q9GZT9 whole entry): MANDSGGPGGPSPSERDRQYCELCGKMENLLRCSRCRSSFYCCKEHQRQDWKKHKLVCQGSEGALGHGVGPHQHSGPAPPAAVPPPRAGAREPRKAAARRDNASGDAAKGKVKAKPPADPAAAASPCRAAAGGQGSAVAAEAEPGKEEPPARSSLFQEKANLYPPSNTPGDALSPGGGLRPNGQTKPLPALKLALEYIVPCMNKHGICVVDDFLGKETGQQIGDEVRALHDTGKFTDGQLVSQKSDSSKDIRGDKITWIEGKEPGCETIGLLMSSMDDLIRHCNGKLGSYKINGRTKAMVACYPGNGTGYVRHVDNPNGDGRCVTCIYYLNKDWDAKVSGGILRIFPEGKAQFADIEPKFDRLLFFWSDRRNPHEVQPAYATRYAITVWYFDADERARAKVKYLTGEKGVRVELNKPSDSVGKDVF
Nature of the experiment: Inhibition of the hydroxylation of a HIF peptide by PHD2 (time resolved fluorescence, 384-well). Particulars: FLAG-tagged full length PHD2; 0.2 μM 2-oxoglutarate, 0.5 μM HIF-1α peptide; 45 minutes at room temperature; read-out: Human HIF-PHD2 IC50. The experiment is classed as biochemical.
Turning to `CN1CC(c2ccc(C(F)(F)F)cc2)n2c(=O)c(C(=O)NCC(=O)O)c(O)c3ccc(F)c1c32` (centres unmarked) [Example 117, 2-(10-Fluoro-7-hydroxy-1-methyl-5-oxo-3-(4-(trifluoromethyl)phenyl)-1,2,3,5-tetrahydropyrido[1,2,3-de]quinoxaline-6-carboxamido)acetic acid], the IC50 was determined as 55 nM.

Turning to `O=C(O)CNC(=O)c1c(O)c2cc(F)cc3c2n(c1=O)C(c1ccc(C(F)(F)F)cc1)CN3` (centres unmarked) [Example 118, 2-(9-Fluoro-7-hydroxy-5-oxo-3-(4-(trifluoromethyl)phenyl)-1,2,3,5-tetrahydropyrido[1,2,3-de]quinoxaline-6-carboxamido)acetic acid], the IC50 is 5.7 nM. Still for that read-out and setting: with `O=C(O)CNC(=O)c1c(O)c2c(F)ccc3c2n(c1=O)CC(c1ccc(C(F)(F)F)cc1)N3` (centres unmarked) [Example 119, 2-(8-Fluoro-7-hydroxy-5-oxo-2-(4-(trifluoromethyl)phenyl)-1,2,3,5-tetrahydropyrido[1,2,3-de]quinoxaline-6-carboxamido)acetic acid] the figure was 10 nM. In the case of `O=C(O)CNC(=O)c1c(O)c2cc(F)cc3c2n(c1=O)CC(c1ccc(C(F)(F)F)cc1)N3` (centres unmarked) [Example 120, 2-(9-Fluoro-7-hydroxy-5-oxo-2-(4-(trifluoromethyl)phenyl)-1,2,3,5-tetrahydropyrido[1,2,3-de]quinoxaline-6-carboxamido)acetic acid], the IC50 turned out to be 4.6 nM.

With `O=C(O)CNC(=O)c1c(O)c2c(F)ccc3c2n(c1=O)C(c1ccc(C(F)(F)F)cc1)CN3` (centres unmarked) [Example 121, 2-(8-Fluoro-7-hydroxy-5-oxo-3-(4-(trifluoromethyl)phenyl)-1,2,3,5-tetrahydropyrido[1,2,3-de]quinoxaline-6-carboxamido)acetic acid], the IC50 is 9.4 nM. Still for that read-out and setting: with `CN1CC(c2ccc(C(F)(F)F)cc2)n2c(=O)c(C(=O)NCC(=O)O)c(O)c3cc(F)cc1c32` (centres unmarked) [Example 122, 2-(9-Fluoro-7-hydroxy-1-methyl-5-oxo-3-(4-(trifluoromethyl)phenyl)-1,2,3,5-tetrahydropyrido[1,2,3-de]quinoxaline-6-carboxamido)acetic acid] the figure was 30 nM; with `CN1c2cc(F)cc3c(O)c(C(=O)NCC(=O)O)c(=O)n(c23)CC1c1ccc(C(F)(F)F)cc1` (centres unmarked) [Example 123, 2-(9-Fluoro-7-hydroxy-1-methyl-5-oxo-2-(4-(trifluoromethyl)phenyl)-1,2,3,5-tetrahydropyrido[1,2,3-de]quinoxaline-6-carboxamido)acetic acid], 15 nM; with `O=C(O)CNC(=O)c1c(O)c2cc(OC(F)(F)F)cc3c2n(c1=O)CC(c1ccc(C(F)(F)F)cc1)O3` (centres unmarked) [Example 124, 2-(7-Hydroxy-5-oxo-9-(trifluoromethoxy)-2-(4-(trifluoromethyl)phenyl)-3,5-dihydro-2H-[1,4]oxazino[2,3,4-ij]quinoline-6-carboxamido)acetic acid], 9.6 nM.

Take `O=C(O)CNC(=O)c1c(O)c2cccc3c2n(c1=O)C(c1ccc(C(F)(F)F)nc1)CN3` (centres unmarked) [Example 127, 2-(7-Hydroxy-5-oxo-3-(6-(trifluoromethyl)pyridin-3-yl)-1,2,3,5-tetrahydropyrido[1,2,3-de]quinoxaline-6-carboxamido)acetic acid]: the IC50 is 3.6 nM. Same read-out and setting: with `CN1CC(c2ccc(C(F)(F)F)nc2)n2c(=O)c(C(=O)NCC(=O)O)c(O)c3cccc1c32` (centres unmarked) [Example 128, 2-(7-Hydroxy-1-methyl-5-oxo-3-(6-(trifluoromethyl)pyridin-3-yl)-1,2,3,5-tetrahydropyrido[1,2,3-de]quinoxaline-6-carboxamido)acetic acid] the figure was 6.9 nM; with `CS(=O)(=O)Nc1ccc(-c2ccc3c(O)c(C(=O)NCC(=O)O)c(=O)n4c3c2OCC4c2ccc(C(F)(F)F)cc2)cc1` (centres unmarked) [Example 134, N-[(7-Hydroxy-10-{4-[(methylsulfonyl)amino]phenyl}-5-oxo-3-[4-(trifluoromethyl)phenyl]-2,3-dihydro-5H-[1,4]oxazino[2,3,4-ij]quinolin-6-yl)carbonyl]glycine], 38 nM.

On to `NC(=O)c1ccc(-c2ccc(C3COc4cccc5c(O)c(C(=O)NCC(=O)O)c(=O)n3c45)cc2)cc1` (centres unmarked) [Example 141, N-{[3-(4′-Carbamoylbiphenyl-4-yl)-7-hydroxy-5-oxo-2,3-dihydro-5H-[1,4]oxazino[2,3,4-ij]quinolin-6-yl]carbonyl}glycine], for which the IC50 was 6.1 nM.

The same experiment, now with this note: FLAG-tagged full length PHD2; 0.2 μM 2-oxoglutarate, 0.5 μM HIF-1α peptide; 45 minutes at room temperature; read-out: MS m/z (M + 1)+ and human HIF-PHD2 IC50.
As to `COc1cncc(-c2ccc3c(O)c(C(=O)NCC(=O)O)c(=O)n4c3c2OCC4c2ccc(C(F)(F)F)cc2)c1` (centres unmarked) [Example 135, N-({7-hydroxy-10-(5-methoxypyridin-3-yl)-5-oxo-3-[4-(trifluoromethyl)phenyl]-2,3-dihydro-5H-[1,4]oxazino[2,3,4-ij]quinolin-6-yl}carbonyl)glycine], the IC50 was found to be 15 nM. Turning to `O=C(O)CNC(=O)c1c(O)c2ccc(-c3ccccn3)c3c2n(c1=O)C(c1ccc(C(F)(F)F)cc1)CO3` (centres unmarked) [Example 136, N-({7-hydroxy-5-oxo-10-pyridin-2-yl-3-[4-(trifluoromethyl)phenyl]-2,3-dihydro-5H-[1,4]oxazino[2,3,4-ij]quinolin-6-yl}carbonyl)glycine], the IC50 was 19 nM.

On to `COc1ncc(-c2ccc3c(O)c(C(=O)NCC(=O)O)c(=O)n4c3c2OCC4c2ccc(C(F)(F)F)cc2)cn1` (centres unmarked) [Example 137, N-({7-hydroxy-10-(2-methoxypyrimidin-5-yl)-5-oxo-3-[4-(trifluoromethyl)phenyl]-2,3-dihydro-5H-[1,4]oxazino[2,3,4-ij]quinolin-6-yl}carbonyl)glycine], for which the IC50 was found to be 14 nM. Same read-out and setting: next, `O=C(O)CNC(=O)c1c(O)c2ccc(-c3cncnc3)c3c2n(c1=O)C(c1ccc(C(F)(F)F)cc1)CO3` (centres unmarked) [Example 138, N-({7-hydroxy-5-oxo-10-pyrimidin-5-yl-3-[4-(trifluoromethyl)phenyl]-2,3-dihydro-5H-[1,4]oxazino[2,3,4-ij]quinolin-6-yl}carbonyl)glycine]: 12 nM; `NC(=O)c1cccc(-c2ccc3c(O)c(C(=O)NCC(=O)O)c(=O)n4c3c2OCC4c2ccc(C(F)(F)F)cc2)c1` (centres unmarked) [Example 139, N-({10-(3-carbamoylphenyl)-7-hydroxy-5-oxo-3-[4-(trifluoromethyl)phenyl]-2,3-dihydro-5H-[1,4]oxazino[2,3,4-ij]quinolin-6-yl}carbonyl)glycine]: 14 nM; `O=C(O)CNC(=O)c1c(O)c2ccc(-c3ccn[nH]3)c3c2n(c1=O)C(c1ccc(C(F)(F)F)cc1)CO3` (centres unmarked) [Example 140, 2-(7-hydroxy-5-oxo-10-(1H-pyrazol-5-yl)-3-(4-(trifluoromethyl)phenyl)-3,5-dihydro-2H-[1,4]oxazino[2,3,4-ij]quinoline-6-carboxamido)acetic acid]: 11 nM. As for `O=C(O)CNC(=O)c1c(O)c2cccc3c2n(c1=O)C(c1ccc(-c2cccc(Cl)c2)cc1)CO3` (centres unmarked) [Example 142, N-{[3-(3′-chlorobiphenyl-4-yl)-7-hydroxy-5-oxo-2,3-dihydro-5H-[1,4]oxazino[2,3,4-ij]quinolin-6-yl]carbonyl}glycine], the IC50 amounted to 19 nM. Same read-out and setting: next, `O=C(O)CNC(=O)c1c(O)c2cccc3c2n(c1=O)C(c1ccc(-c2ccc(C(F)(F)F)nc2)cc1)CO3` (centres unmarked) [Example 143, N-[(7-hydroxy-5-oxo-3-{4-[6-(trifluoromethyl)pyridin-3-yl]phenyl}-2,3-dihydro-5H-[1,4]oxazino[2,3,4-ij]quinolin-6-yl)carbonyl]glycine]: 4.7 nM.
